Measurements taken from article PMC6811774, “Potent, selective, and subunit‐dependent activation of TRPC5 channels by a xanthine derivative” (British Journal of Pharmacology, 2019).

Key:
wild-type HEK 293 cells = test: [Ca2+]i measurement in wild-type HEK 293 cells; assay type: cell-based, human; settings: 0.3–300 nM
Experimental: Intracellular concentration of Ca^2+ ([Ca^2+]i) recordings were carried out using the ratiometric Ca^2+ dye Fura‐2; 24 hr before experiments, cells were plated onto black, clear bottom poly‐D‐lysine coated 96‐well plates, and for T‐REx cells, TRPM2 or TRPC1/4/5 protein expression was induced with 1 μg·ml^−1 tetracycline at this point. All cells were used at 90% confluence. To load cells with the Fura‐2 dye, media was removed and cells were incubated with standard bath solution (SBS; composition, in mM, NaCl 130, KCl 5, glucose 8, HEPES 10, MgCl2 1.2, and CaCl2 1.5) containing 2‐μM Fura‐2 acetoxymethyl ester (Fura‐2 AM) and 0.01% pluronic acid for 1 hr at 37°C. For CHO cells stably expressing TRPV4 protein, probenecid (final concentration 2.5 mM) was present in all buffers used from the point of Fura‐2 AM application. After this incubation, cells were washed with fresh SBS and incubated at room temperature for a further 30 min. SBS was then changed to recording buffer (SBS with 0.01% pluronic acid and 0.1% DMSO to match compound buffer) immediately prior to experimentation. In the case of inhibitor studies, cells were washed twice with fresh SBS after incubation with Fura‐2 AM, followed by the addition of SBS with 0.01% pluronic acid and the relevant inhibitor or vehicle. Cells were then incubated for 30 min prior to the experiment. […]

TRPM2 = molecular target: T1, TRPM2 (Homo sapiens, UniProt O94759); test: [Ca2+]i selectivity assay, (Tet+) HEK T-REx cells expressing TRPM2, H2O2 activation; assay type: cell-based; settings: 300 nM AM237; 1 mM H2O2
T1 construct: expressed in transfected cells
T1 sequence (O94759 whole entry): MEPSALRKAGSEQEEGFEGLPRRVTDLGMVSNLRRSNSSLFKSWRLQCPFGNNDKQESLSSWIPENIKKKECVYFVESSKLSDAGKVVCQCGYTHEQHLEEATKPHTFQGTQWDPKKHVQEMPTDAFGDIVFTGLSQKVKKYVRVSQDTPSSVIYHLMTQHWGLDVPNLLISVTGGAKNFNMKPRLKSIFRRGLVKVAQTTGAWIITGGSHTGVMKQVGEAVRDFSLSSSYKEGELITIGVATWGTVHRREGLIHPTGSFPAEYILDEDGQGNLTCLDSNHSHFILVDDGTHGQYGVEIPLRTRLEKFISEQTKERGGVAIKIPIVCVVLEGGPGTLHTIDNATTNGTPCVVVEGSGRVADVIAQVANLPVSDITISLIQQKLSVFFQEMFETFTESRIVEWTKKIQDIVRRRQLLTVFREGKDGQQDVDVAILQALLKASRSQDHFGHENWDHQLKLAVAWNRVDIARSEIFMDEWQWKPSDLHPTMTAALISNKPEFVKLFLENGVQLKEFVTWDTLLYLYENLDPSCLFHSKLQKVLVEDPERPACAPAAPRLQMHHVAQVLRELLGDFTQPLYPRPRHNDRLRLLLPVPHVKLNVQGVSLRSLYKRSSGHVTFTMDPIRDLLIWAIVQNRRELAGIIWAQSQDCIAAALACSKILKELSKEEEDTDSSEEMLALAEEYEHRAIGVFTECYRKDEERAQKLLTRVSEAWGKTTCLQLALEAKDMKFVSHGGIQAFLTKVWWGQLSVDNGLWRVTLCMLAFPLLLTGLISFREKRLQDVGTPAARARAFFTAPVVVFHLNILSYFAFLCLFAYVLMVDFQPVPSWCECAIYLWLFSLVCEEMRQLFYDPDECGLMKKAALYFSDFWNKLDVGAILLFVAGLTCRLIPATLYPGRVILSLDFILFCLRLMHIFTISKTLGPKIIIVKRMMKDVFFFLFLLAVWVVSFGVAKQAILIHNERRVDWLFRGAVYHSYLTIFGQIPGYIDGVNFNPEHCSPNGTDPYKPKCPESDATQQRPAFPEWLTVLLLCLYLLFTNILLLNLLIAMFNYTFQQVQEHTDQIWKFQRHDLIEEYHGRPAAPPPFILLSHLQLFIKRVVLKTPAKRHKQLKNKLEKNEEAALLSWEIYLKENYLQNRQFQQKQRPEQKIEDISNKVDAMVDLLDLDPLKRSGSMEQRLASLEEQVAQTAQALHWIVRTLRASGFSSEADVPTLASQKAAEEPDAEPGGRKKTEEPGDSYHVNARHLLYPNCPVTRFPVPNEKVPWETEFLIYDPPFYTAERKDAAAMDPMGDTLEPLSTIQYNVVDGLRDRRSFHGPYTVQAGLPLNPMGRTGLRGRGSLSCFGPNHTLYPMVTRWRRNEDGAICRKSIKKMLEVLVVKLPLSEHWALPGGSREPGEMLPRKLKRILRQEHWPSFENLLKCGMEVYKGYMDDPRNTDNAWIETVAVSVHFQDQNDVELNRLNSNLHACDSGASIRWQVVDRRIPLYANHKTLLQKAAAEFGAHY

TRPC3 = molecular target: T2, TRPC3 (Homo sapiens, UniProt Q13507); test: [Ca2+]i selectivity assay, WT HEK 293 cells transiently transfected with hTRPC3, OAG activation; assay type: cell-based; settings: 300 nM AM237; 100 μM OAG
T2 construct: expressed in transfected cells; host or cells: WT HEK 293 (transient, jetPRIME)
T2 sequence (Q13507 1-921): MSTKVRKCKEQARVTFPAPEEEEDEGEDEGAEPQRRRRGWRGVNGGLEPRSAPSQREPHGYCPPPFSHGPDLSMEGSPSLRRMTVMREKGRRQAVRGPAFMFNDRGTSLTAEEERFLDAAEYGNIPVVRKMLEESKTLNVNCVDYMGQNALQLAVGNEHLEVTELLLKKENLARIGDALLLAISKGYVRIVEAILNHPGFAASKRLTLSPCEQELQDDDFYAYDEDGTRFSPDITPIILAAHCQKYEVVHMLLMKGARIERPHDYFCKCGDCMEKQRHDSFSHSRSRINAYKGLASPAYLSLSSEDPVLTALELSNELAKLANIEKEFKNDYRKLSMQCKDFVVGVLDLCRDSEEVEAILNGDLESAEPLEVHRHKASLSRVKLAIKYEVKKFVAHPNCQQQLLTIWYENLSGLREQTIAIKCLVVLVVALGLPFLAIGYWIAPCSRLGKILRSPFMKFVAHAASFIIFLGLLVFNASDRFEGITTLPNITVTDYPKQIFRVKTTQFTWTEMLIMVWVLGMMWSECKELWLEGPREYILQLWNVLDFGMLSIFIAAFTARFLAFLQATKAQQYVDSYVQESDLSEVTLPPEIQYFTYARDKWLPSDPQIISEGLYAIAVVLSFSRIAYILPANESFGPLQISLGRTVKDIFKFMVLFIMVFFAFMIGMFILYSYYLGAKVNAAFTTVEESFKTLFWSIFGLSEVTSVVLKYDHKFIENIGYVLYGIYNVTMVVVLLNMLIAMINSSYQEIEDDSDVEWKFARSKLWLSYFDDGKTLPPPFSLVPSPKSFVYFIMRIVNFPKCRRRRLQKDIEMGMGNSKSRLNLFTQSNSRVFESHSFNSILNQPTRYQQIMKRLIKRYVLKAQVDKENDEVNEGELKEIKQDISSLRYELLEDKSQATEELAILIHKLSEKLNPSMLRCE

**Q.** `Cn1c(=O)n(CCCO)c(=O)c2c1nc(Oc1ccc(Cl)c(OC(F)(F)F)c1)n2Cc1ccc(Cl)cc1` [AM237] was tested. Which “Effect on [Ca2+]i in wild-type HEK 293 cells” value (wild-type HEK 293 cells) did it give?
**A.** did not increase

**Q.** What about the “Activation or inhibition of TRPM2” value (TRPM2) of the same compound?
**A.** no activation or inhibition

**Q.** What about the “Activation or inhibition of TRPC3” value (TRPC3) of the same compound?
**A.** no activation or inhibition
